Legend:
[1] = test system: healthy subjects; experiment: FIH study, whole study: safety and tolerability
Experimental: The study started with the SAD part.
(§2) AEs were recorded from (first) admission until completion of the follow-up visit. Any clinically significant observations in results of clinical laboratory, 12-lead ECGs, vital signs, or physical examinations were recorded as AEs.
(§3) A treatment-emergent AE (TEAE) was defined as any event not present prior to (the first) administration of the study drug or any event already present that worsened in either severity or frequency following exposure to the study drug.
(§4) At several time points before and after drug administration, subjects were asked nonleading questions to determine the occurrence of AEs. Subjects were asked in general terms about any AEs at regular intervals during the study. In addition, all AEs reported spontaneously during the course of the study were recorded. Details included description of the event, date and time of onset, date and time of end, total duration, severity, relationship to study drug, intervention, seriousness, and outcome. All answers were interpreted by the Investigator and were recorded in the eCRF. All AEs were classified according to the Medical Dictionary for Regulatory Activities (MedDRA; Version 22.0) for AEs.
(§5) The severity of the AEs was rated as mild, moderate, or severe; the relationship between the AEs and the study drug was indicated as none, unlikely, possibly, likely, or definitely. Adverse events assessed as possibly, likely, or definitely were considered related to the study drug; AEs assessed as none or unlikely were considered not related to the study drug.
(§6) The following parameters were measured: • Clinical chemistry (serum quantitatively): total bilirubin, alkaline phosphatase, gamma glutamyl transferase, aspartate aminotransferase (AST), alanine aminotransferase (ALT), lactate dehydrogenase, creatinine, urea, total protein, glucose, inorganic phosphate, sodium, potassium, • calcium, and chloride • Hematology (blood quantitatively): leukocytes, erythrocytes, hemoglobin, hematocrit, thrombocytes, partial automated differentiation (lymphocytes, monocytes, eosinophils, basophils, and neutrophils), mean corpuscular volume, mean corpuscular hemoglobin, and mean corpuscular hemoglobin concentration • Coagulation (blood quantitatively): prothrombin time (reported in seconds and as international normalized ratio), activated partial thromboplastin time, and fibrinogen • Urinalysis (urine qualitatively): hemoglobin, urobilinogen, ketones, glucose, and protein • Serology: HBsAg, anti-HCV, and anti-HIV 1 and 2 • Drug and alcohol screen: opiates, methadone, cocaine, amphetamines (including ecstasy), cannabinoids, barbiturates, benzodiazepines, tricyclic antidepressants, and alcohol • Pregnancy test (females only): (3-human chorionic gonadotropin in serum
(§7) Systolic and diastolic blood pressure and pulse were recorded after the subject had been resting for at least 5 minutes in the supine position. These assessments were made using an automated device. Body temperature and respiratory rate were measured subsequently.
(§8) The ECG was recorded using an ECG machine equipped with computer-based interval measurements (with no/minimal disturbance by procedures). The following ECG parameters were recorded: heart rate, PR-interval, QRS-duration, QT-interval, QTcF-interval, and the interpretation of the ECG profile by the Investigator.
Safety and tolerability were assessed through AEs, clinical laboratory, vital signs, ECGs, continuous cardiac monitoring (telemetry), and physical examination findings, and any other parameter that was relevant for safety assessment.

[2] = test system: healthy subjects; experiment: FIH study, MAD part: safety and tolerability; format: in vivo, human
Experimental: Subjects received multiple oral doses of an IR formulation of IMB-1018972 or placebo once every 12 hours (q12h) for 14 consecutive days. Each subject participated in only 1 group during the study.
The doses were selected based upon the safety, tolerability, and PK data from the SAD part: • Group B1 multiple oral doses of an IR formulation of 150 mg IMB-1018972 (n=9) or matching placebo (n=3) twice daily (q12h) for 14 days; on Day 14 only a single morning dose was administered • Group B2: multiple oral doses of an IR formulation of 50 mg IMB-1018972 (n=9) or matching placebo (n=3) q12h for 14 days; on Day 14 only a single morning dose was administered
as §2, §3, §4, §5
In the MAD part, a 12-lead ECG was recorded continuously by telemetry from 2 hours before to 12 hours after drug administration on Day 1, and from 2 hours before to 24 hours after drug administration on Day 14.

[3] = test system: healthy subjects; experiment: FIH study, SAD part (and integrated FE arm): safety and tolerability
Experimental: In Groups A1, A2, A3, and A4, subjects received a single oral dose of an IR formulation of IMB-1018972 or placebo under fasted conditions (an overnight fast of at least 10 hours). […] Each subject participated in only 1 group during the study.
as §2, §3, §4, §5, §6, §7, §8
In the SAD part (not in the second period of the FE group A4, and not in Group A5), a 12-lead ECG was recorded continuously by telemetry from 2 hours before to 24 hours after drug administration on Day 1.

[4] = test system: dog; experiment: 28-day dog study (nonclinical toxicology: NOAEL and exposure); conditions: in vivo
Experimental: Based on the nonclinical toxicology data, it was considered that subjects in this clinical study were not at unreasonable risk of adverse effects. […] For a 60-kg individual, the NOAEL dose would be 6480 mg. With a 10-fold safety factor applied, this would allow for a maximum recommended starting dose (MRSD) of 648 mg/day.7,8 The planned starting dose in the current Phase 1 study was 50 mg, equivalent to 0.83 mg/kg/day for a 60-kg subject. This starting dose is less than 10% of the MRSD determined from the dog NOAEL and less than 1% of the dog NOAEL
The relevant animal study was the 28-day dog study where the NOAEL for IMB-1018972 was 200 mg/kg/day.

[5] = test system: healthy subjects; experiment: FIH study, single-dose MR part: safety and tolerability; format: in vivo, human; conditions: for ALT, Subject 505: normal range 0-68 IU/L
Experimental: The subjects received a single oral dose of 1 of 4 MR formulations of IMB-1018972 under fasted conditions (an overnight fast of at least 10 hours) on Days 1, 4, 7, and 10 in a fixed order that was the same for all subjects. The MR formulation of IMB-1018972 to be administered on Day 13 under fed conditions was 1 of the 4 MR formulations administered on Days 1, 4, 7, and 10 under fasted conditions. The formulation chosen for administration on Day 13 was the 200 mg 8-hour MR formulation as determined by the Sponsor based on the available safety, tolerability, and PK results of the 4 MR formulations.
as §2, §3, §4, §5, §6

[6] = test system: patients with stable angina; experiment: Blinded, randomized, controlled Phase 2 study IMB101-006 […]: spontaneously reported renal and urinary findings; format: in vivo, human; conditions: 200 mg MR BID for 8 weeks, blinded (N=22)
Experimental: (§1) In the early Phase 1 study in healthy volunteers and early Phase 2 studies in patients, there were instances of increased urine volume and increased urinary frequency spontaneously reported. • In the first-in-man study, CIMB8972-101, healthy volunteers were dosed with single doses of IMB-1018972 at 50 mg or 200 mg of the modified release (MR) formulation. Two of 12 subjects [2/12] (16.7%) reported 5 events of pollakiuria at both doses. • In an open label Phase 2 study (IMB101-005 DICE) treating patients with Type 2 Diabetes mellitus and obesity for 8 weeks with 200 mg MR BID, two of 22 patients [2/22] (9.1%) spontaneously reported renal and urinary findings. One patient reported pollakiuria and one patient reported increased nocturnal urinary frequency. • In a blinded, randomized, controlled, Phase 2 study (IMB101-006 […]) treating patients with stable angina for 8 weeks with 200 mg MR BID, one of 22 patients [1/22] (4.5%) spontaneously reported renal and urinary findings. One patient reported polyuria.

[7] = test system: patients with Type 2 Diabetes mellitus and obesity; experiment: Open label Phase 2 study IMB101-005 DICE: spontaneously reported renal and urinary findings; format: in vivo, human; conditions: 200 mg MR BID for 8 weeks (N=22)
Experimental: as §1

[8] = MAD part, all IMB-1018972 doses (N=18)
[9] = 150 mg IMB-1018972 fasted (fasted-fed group)
[10] = 150 mg IMB-1018972 fed (fasted-fed group)
[11] = SAD part, all IMB-1018972 doses (N=24)
[12] = 50 mg 4-hour MR formulation of IMB-1018972, fasted
[13] = 200 mg 4-hour MR formulation of IMB-1018972, fasted
[14] = single doses of 50 mg or 200 mg MR IMB-1018972 (N=12)
[15] = single-dose MR part, IMB-1018972 (N=12)
[16] = single-dose MR part, of 37 TEAEs

COc1ccc(CN2CCN(CCOC(=O)c3cccnc3)CC2)c(OC)c1OC [IMB-1018972, 2-[4-[(2,3,4-trimethoxyphenyl)methyl]piperazin-1-yl]ethyl pyridine-3-carboxylate]
Subjects withdrawn from the study due to adverse events ([1]; 1 SAE influenza like illness, 1 TEAE ALT increased): Two | Hemodynamic changes and QTc-interval ([1]; IR or MR formulations): no findings of hemodynamic changes, nor changes in the QTc-interval | Dose dependency of number and incidence of TEAEs ([1]; overall): no clear dose dependency | Overall tolerability ([1]; single and multiple oral doses, IR and MR formulations): generally well tolerated | Clinical laboratory, vital signs, 12-lead ECG, continuous cardiac monitoring (telemetry), physical examination ([1]; whole study): no findings of clinical relevance | Deaths ([1]; whole study): no deaths | Severe TEAEs ([1]; whole study): no severe TEAEs | Number of TEAEs of moderate severity ([1]; whole study, all treatments): 12 | Total number of TEAEs ([1]; whole study, all treatments): 181 | TEAEs of flushing ([2]; 50 mg IMB-1018972 q12h): No TEAEs of flushing | Number of TEAEs ([2]; 50 mg IMB-1018972 q12h fed): 21 | Subjects reporting TEAEs ([2]; 50 mg IMB-1018972 q12h fed): 77.8% | Number of TEAEs of flushing (incidental, mild) ([2]; 150 mg IMB-1018972 q12h): 7 | Subjects with TEAEs of flushing ([2]; 150 mg IMB-1018972 q12h): 6 subjects | Number of TEAEs ([2]; 150 mg IMB-1018972 q12h fed): 14 | Subjects reporting TEAEs ([2]; 150 mg IMB-1018972 q12h fed): 77.8% | Tolerability ([2]; 14-day oral q12h 50 mg and 150 mg IMB-1018972, fed): well tolerated | Severity of all TEAEs ([2]; MAD part): mild | Number of TEAEs considered not related to the study drug ([2]; MAD part, IMB-1018972 (N=18)): 28 | Number of TEAEs, SOC general disorders and administration site conditions ([2]; MAD part, IMB-1018972 (N=18)): 7 | Number of TEAEs, SOC musculoskeletal and connective tissue disorders ([2]; MAD part, IMB-1018972 (N=18)): 7 | Number of TEAEs, SOC vascular disorders (flushing) ([2]; MAD part, IMB-1018972 (N=18)): 7 | Subjects reporting TEAEs considered not related to the study drug ([2]; MAD part, IMB-1018972 (N=18)): 61.1% | Subjects reporting TEAEs considered related to the study drug ([2]; MAD part, IMB-1018972 (N=18)): 33.3% | Subjects reporting TEAEs, SOC general disorders and administration site conditions ([2]; MAD part, IMB-1018972 (N=18)): 27.8% | Subjects reporting TEAEs, SOC musculoskeletal and connective tissue disorders ([2]; MAD part, IMB-1018972 (N=18)): 27.8% | Subjects reporting TEAEs, SOC vascular disorders (flushing) ([2]; MAD part, IMB-1018972 (N=18)): 33.3% | Number of TEAEs considered related to the study drug ([2]; MAD part, IMB-1018972 (N=18), all flushing at 150 mg q12h): 7 | Number of TEAEs [2, 8]: 35 | Subjects reporting TEAEs [2, 8]: 77.8% | Number of TEAEs ([3]; 50 mg IMB-1018972 fasted): 3 | Subjects reporting TEAEs ([3]; 50 mg IMB-1018972 fasted): 50.0% | Number of TEAEs ([3]; 150 mg IMB-1018972 fasted): 5 | Subjects reporting TEAEs ([3]; 150 mg IMB-1018972 fasted): 50.0% | Number of TEAEs [3, 9]: 17 | Subjects reporting TEAEs [3, 9]: 66.7% | Number of TEAEs [3, 10]: 4 | Subjects reporting TEAEs [3, 10]: 20% | Number of TEAEs ([3]; 400 mg IMB-1018972 fasted): 16 | Subjects reporting TEAEs ([3]; 400 mg IMB-1018972 fasted): 100% | Effect of dosing under fed conditions on number and incidence of TEAEs ([3]; FE arm of the SAD part, 150 mg): appeared to attenuate | Severe TEAEs ([3]; SAD part): No severe TEAEs | Number of TEAEs of flushing ([3]; SAD part, IMB-1018972): 6 | Number of TEAEs of flushing of mild severity ([3]; SAD part, IMB-1018972): 1 | Number of TEAEs of flushing of moderate severity ([3]; SAD part, IMB-1018972): 5 | Number of TEAEs considered related to the study drug ([3]; SAD part, IMB-1018972 (N=24)): 21 | Number of TEAEs, SOC gastrointestinal disorders ([3]; SAD part, IMB-1018972 (N=24)): 9 | Number of TEAEs, SOC general disorders and administration site conditions ([3]; SAD part, IMB-1018972 (N=24)): 9 | Number of TEAEs, SOC nervous system disorders ([3]; SAD part, IMB-1018972 (N=24)): 9 | Number of TEAEs, SOC skin and subcutaneous tissue disorders ([3]; SAD part, IMB-1018972 (N=24)): 4 | Number of TEAEs, SOC vascular disorders ([3]; SAD part, IMB-1018972 (N=24)): 7 | Number of drug-related TEAEs, nervous system disorders ([3]; SAD part, IMB-1018972 (N=24)): 5 | Number of drug-related TEAEs, vascular disorders (flushing) ([3]; SAD part, IMB-1018972 (N=24)): 6 | Subjects reporting TEAEs considered related to the study drug ([3]; SAD part, IMB-1018972 (N=24)): 29.2% | Subjects reporting TEAEs, SOC gastrointestinal disorders ([3]; SAD part, IMB-1018972 (N=24)): 16.7% | Subjects reporting TEAEs, SOC general disorders and administration site conditions ([3]; SAD part, IMB-1018972 (N=24)): 20.8% | Subjects reporting TEAEs, SOC nervous system disorders ([3]; SAD part, IMB-1018972 (N=24)): 29.2% | Subjects reporting TEAEs, SOC skin and subcutaneous tissue disorders ([3]; SAD part, IMB-1018972 (N=24)): 16.7% | Subjects reporting TEAEs, SOC vascular disorders ([3]; SAD part, IMB-1018972 (N=24)): 29.2% | Subjects reporting drug-related TEAEs, nervous system disorders ([3]; SAD part, IMB-1018972 (N=24)): 16.7% | Subjects reporting drug-related TEAEs, vascular disorders (flushing) ([3]; SAD part, IMB-1018972 (N=24)): 25% | Number of TEAEs [3, 11]: 45 | Subjects reporting TEAEs [3, 11]: 66.7% | Number of TEAEs of moderate severity ([3]; SAD part, of 48 TEAEs with IMB-1018972 or placebo): 11 | Drug-related TEAEs ([3]; following 50 mg and 150 mg (fasted only group) IMB-1018972): No drug-related TEAEs | Subjects who reported flushing ([3]; single 150 mg IMB-1018972, fasted, FE arm): 2 subjects | Subjects who reported flushing ([3]; single 400 mg IMB-1018972, fasted): Four | Tolerability ([3]; single oral IMB-1018972 50, 150, 400 mg fasted and 150 mg fed): well tolerated | NOAEL dose for a 60-kg individual (HED) [4]: 6480 mg | Maximum recommended starting dose (MRSD), 10-fold safety factor ([4]; 28 days): 648 mg/day | Number of TEAEs [5, 12]: 9 | Subjects reporting TEAEs [5, 12]: 50% | Tolerability ([5]; 50 mg and 200 mg MR formulations (4-hour, 8-hour) fasted, 200 mg 8-hour MR fed, except 1 subject with elevated ALT): well tolerated | Number of TEAEs [5, 13]: 11 | Subjects reporting TEAEs [5, 13]: 66.7% | ALT, Subject 505 ([5]; Day 2, MR doses on Days 1, 4, 7, 10): 31 IU/L | ALT, Subject 505 ([5]; Day 5): 72 IU/L | ALT, Subject 505 ([5]; Day 8): 97 IU/L | ALT, Subject 505 ([5]; Day 11 (highest)): 149 IU/L | ALT, Subject 505 ([5]; Day 14): 102 IU/L | ALT, Subject 505 ([5]; Day 16): 84 IU/L | ALT, Subject 505 ([5]; follow-up Day 24): 42 IU/L | Number of drug-related TEAEs (events) of pollakiuria (renal and urinary disorders) [5, 14]: 5 | Subjects reporting pollakiuria [5, 14]: 16.7% | Dose or dissolution time dependency of number and incidence of TEAEs ([5]; single-dose MR part): no apparent dose or dissolution time dependency | Moderate TEAE of ALT increased (1 subject, withdrawn): relationship to the study drug (Investigator) ([5]; single-dose MR part): possibly related | Number of drug-related TEAEs of ALT increased ([5]; single-dose MR part): 1 | Number of drug-related TEAEs of headache ([5]; single-dose MR part): 1 | Severe TEAEs ([5]; single-dose MR part): No severe TEAEs | TEAEs of flushing ([5]; single-dose MR part): No TEAEs of flushing | Number of TEAEs considered not related to the study drug ([5]; single-dose MR part (N=12)): 30 | Number of TEAEs considered related to the study drug ([5]; single-dose MR part (N=12)): 7 | Number of TEAEs, SOC gastrointestinal disorders ([5]; single-dose MR part (N=12)): 5 | Number of TEAEs, SOC general disorders and administration site conditions ([5]; single-dose MR part (N=12)): 11 | Number of TEAEs, SOC nervous system disorders ([5]; single-dose MR part (N=12)): 8 | Subjects reporting TEAEs considered not related to the study drug ([5]; single-dose MR part (N=12)): 83.3% | Subjects reporting TEAEs considered related to the study drug ([5]; single-dose MR part (N=12)): 33.3% | Subjects reporting TEAEs, SOC gastrointestinal disorders ([5]; single-dose MR part (N=12)): 33.3% | Subjects reporting TEAEs, SOC general disorders and administration site conditions ([5]; single-dose MR part (N=12)): 58.3% | Subjects reporting TEAEs, SOC nervous system disorders ([5]; single-dose MR part (N=12)): 58.3% | Difference between fasted and fed administration for number and incidence of TEAEs ([5]; single-dose MR part, 200 mg 8-hour MR): no clear difference | Number of TEAEs [5, 15]: 37 | Subjects reporting TEAEs [5, 15]: 83.3% | Number of TEAEs of mild severity [5, 16]: Thirty-six | Number of TEAEs of moderate severity [5, 16]: 1 | AST levels, Subject 505 ([5]; throughout the entire period): within normal range | Patients reporting polyuria [6]: One | Patients spontaneously reporting renal and urinary findings [6]: 4.5% | Patients reporting increased nocturnal urinary frequency [7]: one | Patients reporting pollakiuria [7]: One | Patients spontaneously reporting renal and urinary findings [7]: 9.1%
